Data taken from US8513233B2, “Pyrimidinyl-propionic acid derivatives and their use as PPAR agonists” (Shanghai Institute of Materia Medica, CAS, priority 2007, dated 2013).

Tests used:
MCF-7 = assay: Growth inhibition, modified MTT assay, MCF-7; type: cell-based; conditions: Homo sapiens, MCF7; MCF-7, MTT, mean of 3 independent tests
Protocol: (§1) The growth inhibition was evaluated by the modified MTT assay. Briefly, the cells were seeded at 1×10^4 cells/well in 96-well plates (Falcon, Calif., USA), and incubated for 24 h in […] culture media with 10% FCS. The media were then replaced by serum-free medium. After 24 h, the media were placed in triplicate with grade concentrations of compounds. As controls, the cells were cultivated in DMEM/F12 only. The cells were then treated by MTT (Sigma, USA) assay, […] (5 g/L) for 4 h. After the removal of the supernatant, the purple-blue sediment was dissolved in 100 μL/well DMSO, and the optical densities were read on the multi-well scanning spectrophotometer (Labsystems Dragon, Finland) at 492 nm (A492). The growth inhibition rate (GIR) of the treated cells was calculated using Equation: GIR(%)={1−[A490/A490(control)]}×100% The results were also converted to IC50 (the compound concentration required for 50% growth inhibition of tumor cells), which were calculated by using the sigmoidal fitting model by the Origin 7.0 software (OriginLab, Northampton, Mass., USA). The mean IC50 was determined from the results of 3 independent tests.

SPC-A1 = assay: Growth inhibition, modified MTT assay, SPC-A1; type: cell-based; conditions: SPCA1, mean of 3 independent tests
Protocol: as §1

T24 = assay: Growth inhibition, modified MTT assay, T24; type: cell-based; conditions: Homo sapiens, T-24, mean of 3 independent tests
Protocol: as §1

HepG2 = assay: Growth inhibition, modified MTT assay, HepG2; type: cell-based; conditions: Homo sapiens, mean of 3 independent tests
Protocol: as §1

PPAR-γ = target: T1, PPAR-γ (Homo sapiens, UniProt P37231); assay: Transient transfection and transcription assay (luciferase reporter, U2OS cells); type: cell-based; conditions: 24 h treatment
T1 construct: expressed in transfected cells; host or cells: U2OS cells, transiently transfected with pcDNA3.1 expression vectors (FuGene6)
T1 sequence (P37231 1-505): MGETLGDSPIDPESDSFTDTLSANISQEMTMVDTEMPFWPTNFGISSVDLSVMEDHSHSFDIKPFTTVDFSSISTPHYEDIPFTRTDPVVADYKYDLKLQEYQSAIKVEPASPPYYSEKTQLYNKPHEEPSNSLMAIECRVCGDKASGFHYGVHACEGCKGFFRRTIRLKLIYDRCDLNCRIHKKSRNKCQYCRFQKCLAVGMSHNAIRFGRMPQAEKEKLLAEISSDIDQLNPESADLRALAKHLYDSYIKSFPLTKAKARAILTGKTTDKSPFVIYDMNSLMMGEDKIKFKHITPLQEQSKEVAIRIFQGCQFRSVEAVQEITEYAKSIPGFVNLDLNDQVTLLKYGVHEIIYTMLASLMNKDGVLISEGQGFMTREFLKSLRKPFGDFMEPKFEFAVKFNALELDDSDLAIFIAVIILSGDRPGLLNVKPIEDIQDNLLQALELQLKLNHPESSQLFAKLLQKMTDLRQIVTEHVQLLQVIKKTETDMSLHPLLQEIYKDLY
T1 sequence (P19793 1-462 partner): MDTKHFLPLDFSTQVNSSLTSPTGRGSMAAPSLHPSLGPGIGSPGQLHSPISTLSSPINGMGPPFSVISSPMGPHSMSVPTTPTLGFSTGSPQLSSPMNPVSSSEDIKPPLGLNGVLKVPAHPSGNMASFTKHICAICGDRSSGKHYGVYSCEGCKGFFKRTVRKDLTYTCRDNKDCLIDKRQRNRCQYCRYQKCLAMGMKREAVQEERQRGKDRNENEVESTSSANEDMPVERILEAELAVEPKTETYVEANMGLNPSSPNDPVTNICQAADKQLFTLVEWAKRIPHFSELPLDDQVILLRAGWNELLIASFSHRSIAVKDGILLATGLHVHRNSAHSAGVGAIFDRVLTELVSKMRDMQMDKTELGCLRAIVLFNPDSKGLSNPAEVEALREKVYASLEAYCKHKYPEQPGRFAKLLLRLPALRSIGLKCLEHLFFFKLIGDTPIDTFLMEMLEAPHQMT
Protocol: cDNAs for Human RXR, PPAR were obtained by RTPCR from the human liver or adipose tissues. Amplified cDNAs were cloned into pcDNA3.1 expression vector and the inserts were confirmed by sequencing. U2OS cells were cultured in McCoy's 5A with 10% heat-inactivated fetal bovine serum in a humidified 5% CO2 atmosphere at 37° C. Cells were seeded in 96-well plates the day before transfection to give a confluence of 50-80% at transfection. A total of 60 ng of DNA containing 10 ng of hRXR, 10 ng of pCMV Gal, 10 ng of nuclear receptor expression vectors and 30 ng of the corresponding reporters were cotransfected per well using FuGene6 transfection reagent according to the manufacturer's instructions. […] The final concentration of DMSO in culture medium was 0.1%. […] Luciferase activity was monitored using the luciferase assay kit according to the manufacturers instructions. Light emission was read in a Labsystems Ascent Fluoroskan reader. To measure galactosidase activity to normalize the luciferase data, 50 IL of supernatant from each transfection lysate was transferred to a new microplate. Galactosidase assays were performed in the microwell plates using a kit from Promega and read in a microplate reader. Compounds were tested in five concentrations ranging from 0.01 to 10 μM. […] The results were expressed as means (SD).

Row | Compound | IC50 (MCF-7) [µM] | IC50 (SPC-A1) [µM] | melting point [°C] | IC50 (T24) [µM] | IC50 (HepG2) [µM] | EC50 (PPAR-γ) [µM]
1 | CC(Cc1ccc(Oc2cc(N3CCN(Cc4ccc5c(c4)OCO5)CC3)nc(N)n2)cc1)(Oc1ccccc1)C(=O)O (centres unmarked) [Compound 5] | > 50 | > 50 | 190 to 192 | > 50 | > 50 | 6.46
2 | CC(Cc1ccc(Oc2cc(N3CCN(Cc4cccc(Cl)c4)CC3)nc(N)n2)cc1)(Oc1ccccc1)C(=O)O (centres unmarked) [Compound 11, 3-{4-{2-Amino-6-[4-(3-chloro-benzyl)-piperazin-1-yl]-pyrimidin-4-yloxy}-phenyl}-2-methyl-2-phenoxy-propionic acid] | 40.6 | 47.6 | 87 to 89 | > 50 | > 50 | 5.13
3 | CC(Cc1ccc(Oc2cc(N3CCN(Cc4cccc(F)c4)CC3)nc(N)n2)cc1)(Oc1ccccc1)C(=O)O (centres unmarked) [Compound 12, 3-{4-{2-Amino-6-[4-(3-fluoro-benzyl)-piperazin-1-yl]-pyrimidin-4-yloxy}-phenyl}-2-methyl-2-phenoxy-propionic acid] | > 50 | > 50 | 113 to 115 | > 50 | > 50 | 6.46
4 | CC(Cc1ccc(Oc2cc(N3CCN(Cc4ccc(Br)cc4)CC3)nc(N)n2)cc1)(Oc1ccccc1)C(=O)O (centres unmarked) [Compound 15, 3-{4-{2-Amino-6-[4-(4-bromo-benzyl)-piperazin-1-yl]-pyrimidin-4-yloxy}-phenyl}-2-methyl-2-phenoxy-propionic acid] | 42.2 | 45.3 | 112 to 114 | > 50 | > 50 | 5.89
5 | CC(Cc1ccc(Oc2cc(N3CCN(Cc4cccc(Br)c4)CC3)nc(N)n2)cc1)(Oc1ccccc1)C(=O)O (centres unmarked) [Compound 16, 3-{4-{2-Amino-6-[4-(3-bromo-benzyl)-piperazin-1-yl]-pyrimidin-4-yloxy}-phenyl}-2-methyl-2-phenoxy-propionic acid] | 30 | 37 | 119 to 120 | 41 | 48 | 6.31
6 | CC(Cc1ccc(Oc2cc(N3CCN(CC(=O)c4ccccc4)CC3)nc(N)n2)cc1)(Oc1ccccc1)C(=O)O (centres unmarked) [Compound 18, 3-{4-{2-Amino-6-[4-(2-oxo-2-phenyl-ethyl)-piperazin-1-yl]-pyrimidin-4-yloxy}-phenyl}-2-methyl-2-phenoxy-propionic acid] | > 50 | > 50 | 107 to 108 | > 50 | > 50 | 6.46
7 | CC(Cc1ccc(Oc2cc(N3CCN(c4ccccn4)CC3)nc(N)n2)cc1)(Oc1ccccc1)C(=O)O (centres unmarked) [Compound 19, 3-{4-[2-Amino-6-(4-pyridin-2-yl-piperazin-1-yl)-pyrimidin-4-yloxy]-phenyl}-2-methyl-2-phenoxy-propionic acid] | > 50 | 42.5 | 110 to 111 | – | 49.5 | 6.31
8 | CC(Cc1ccc(Oc2cc(N3CCN(Cc4ccccc4)CC3)ncn2)cc1)(Oc1ccccc1)C(=O)O (centres unmarked) [Compound 28, 3-{4-[6-(4-benzyl-piperazin-1-yl)-pyrimidin-4-yloxy]-phenyl}-2-methyl-2-phenoxy-propionic acid] | 14.6 | 28.6 | 107 to 109 | 19.6 | 29.3 | 4.68
9 | CC(Cc1ccc(Oc2cc(N3CCN(Cc4ccc([N+](=O)[O-])cc4)CC3)nc(N)n2)cc1)(Oc1ccccc1)C(=O)O (centres unmarked) [Compound 38, 3-{4-{2-Amino-6-[4-(4-nitro-benzyl)-piperazin-1-yl]-pyrimidin-4-yloxy}-phenyl}-2-methyl-2-phenoxy-propionic acid] | 45.3 | > 50 | 160 to 162 | 40.3 | > 50 | –
10 | CC(Cc1ccc(Oc2cc(N3CCN(Cc4cccnc4)CC3)nc(N)n2)cc1)(Oc1ccccc1)C(=O)O (centres unmarked) [Compound 39, 3-{4-[2-Amino-6-(4-pyridin-3-ylmethyl-piperazin-1-yl)-pyrimidin-4-yloxy]-phenyl}-2-methyl-2-ph enoxy-propionic acid] | 38.8 | 43.5 | 141 to 143 | > 50 | > 50 | –
11 | CC(Cc1ccc(Oc2cc(N3CCN(Cc4ccncc4)CC3)nc(N)n2)cc1)(Oc1ccccc1)C(=O)O (centres unmarked) [Compound 40, 3-{4-[2-Amino-6-(4-pyridin-4-ylmethyl-piperazin-1-yl)-pyrimidin-4-yloxy]-phenyl}-2-methyl-2-phenoxy-propionic acid] | 45.2 | 46.5 | 137 to 138 | > 50 | > 50 | –
12 | CC(Cc1ccc(Oc2cc(N3CCN(Cc4ccccc4)CC3)nc(Oc3ccccc3)n2)cc1)(Oc1ccccc1)C(=O)O (centres unmarked) [Compound 43, 3-{4-[6-(4-Benzyl-piperazin-1-yl)-2-phenoxy-pyrimidin-4-yloxy]-phenyl}-2-methyl-2-phenoxy-propionic acid] | 33.5 | 32.5 | 126 to 128 | > 50 | > 50 | 1.62
13 | CC(Cc1ccc(Oc2cc(Oc3ccccc3)nc(N3CCN(Cc4ccccc4)CC3)n2)cc1)(Oc1ccccc1)C(=O)O (centres unmarked) [Compound 44, 3-{4-[2-(4-Benzyl-piperazin-1-yl)-6-phenoxy-pyrimidin-4-yloxy]-phenyl}-2-methyl-2-phenoxy-propionic acid] | 15.4 | 14.1 | 135 to 137 | 11.1 | 35.2 | 4.68
14 | CC(Cc1ccc(Oc2cc(N3CCN(Cc4ccccc4)CC3)nc(NCc3ccccc3)n2)cc1)(Oc1ccccc1)C(=O)O (centres unmarked) [Compound 47, 3-{4-[2-Benzylamino-6-(4-benzyl-piperazin-1-yl)-pyrimidin-4-yloxy]-phenyl}-2-methyl-2-phenoxy-propionic acid] | 22.8 | 31.5 | 104 to 106 | > 50 | > 50 | 6.31
15 | CN(C)c1nc(Oc2ccc(CC(C)(Oc3ccccc3)C(=O)O)cc2)cc(N2CCN(Cc3ccccc3)CC2)n1 (centres unmarked) [Compound 49, 3-{4-[6-(4-Benzyl-piperazin-1-yl)-2-dimethylamino-pyrimidin-4-yloxy]-phenyl}-2-methyl-2-phenoxy-propionic acid] | > 50 | > 50 | 136 to 138 | > 50 | > 50 | 2.95
